The subject of the data set is CCRIS mutagenicity, Ames/micronucleus/aberration tests. Nature of the data set: CCRIS mutagenicity studies.
The mark [1] stands for this setting: Test System: AMES SALMONELLA TYPHIMURIUM, Strain/Indicator: TA98, Metabolic Activation: NONE, Method: PREINCUBATION
Where [2] appears, read: Test System: AMES SALMONELLA TYPHIMURIUM, Strain/Indicator: TA100, Metabolic Activation: NONE, Method: PREINCUBATION
[3] abbreviates: Test System: AMES SALMONELLA TYPHIMURIUM, Strain/Indicator: TA1535, Metabolic Activation: NONE, Method: PREINCUBATION

Active and inactive are the calls of the source. No rule for the calls is given here.

With `Nc1ccc([As](=O)(O)O)cc1`, the mutagenic call by setting is: (Test System: AMES SALMONELLA TYPHIMURIUM, Strain/Indicator: TA97, Metabolic Activation: HAMSTER, LIVER, S-9, AROCLOR 1254 (10 OR 30%), Method: PREINCUBATION) “inactive; negative”; (Test System: AMES SALMONELLA TYPHIMURIUM, Strain/Indicator: TA97, Metabolic Activation: NONE, Method: PREINCUBATION) “inactive; negative”; (Test System: AMES SALMONELLA TYPHIMURIUM, Strain/Indicator: TA97, Metabolic Activation: RAT, LIVER, S-9, AROCLOR 1254 (10 OR 30%), Method: PREINCUBATION) “inactive; negative”; (Test System: AMES SALMONELLA TYPHIMURIUM, Strain/Indicator: TA98, Metabolic Activation: HAMSTER, LIVER, S-9, AROCLOR 1254 (10 OR 30%), Method: PREINCUBATION) “inactive; negative”; under setting [1], “inactive; negative”; (Test System: AMES SALMONELLA TYPHIMURIUM, Strain/Indicator: TA98, Metabolic Activation: RAT, LIVER, S-9, AROCLOR 1254 (10 OR 30%), Method: PREINCUBATION) “inactive; negative”. For the same compound, the mutagenic call reads like this: (Test System: AMES SALMONELLA TYPHIMURIUM, Strain/Indicator: TA100, Metabolic Activation: HAMSTER, LIVER, S-9, AROCLOR 1254 (10 OR 30%), Method: PREINCUBATION) “inactive; negative”; under setting [2], “inactive; negative”; (Test System: AMES SALMONELLA TYPHIMURIUM, Strain/Indicator: TA100, Metabolic Activation: RAT, LIVER, S-9, AROCLOR 1254 (10 OR 30%), Method: PREINCUBATION) “inactive; negative”; (Test System: AMES SALMONELLA TYPHIMURIUM, Strain/Indicator: TA1535, Metabolic Activation: HAMSTER, LIVER, S-9, AROCLOR 1254 (10 OR 30%), Method: PREINCUBATION) “inactive; negative”; under setting [3], “inactive; negative”; (Test System: AMES SALMONELLA TYPHIMURIUM, Strain/Indicator: TA1535, Metabolic Activation: RAT, LIVER, S-9, AROCLOR 1254 (10 OR 30%), Method: PREINCUBATION) “inactive; negative”.

For the compound `Nc1ccc(-c2cc(Cl)c(N)c(Cl)c2)cc1`, the mutagenic call is “active; positive” (Test System: AMES SALMONELLA TYPHIMURIUM, Strain/Indicator: TA98, Metabolic Activation: HAMSTER, LIVER, S-9, Method: PREINCUBATION) and “inactive; negative” under setting [1].

`O=C(S)c1ccccc1`: the mutagenic call is, setting by setting: under setting [1], “inactive; negative”; (Test System: AMES SALMONELLA TYPHIMURIUM, Strain/Indicator: TA98, Metabolic Activation: RAT LIVER S-9, PHENOBARBITAL AND BETA-NAPHTHOFLAVONE, Method: PREINCUBATION) “inactive; negative”; under setting [2], “inactive; negative”; (Test System: AMES SALMONELLA TYPHIMURIUM, Strain/Indicator: TA100, Metabolic Activation: RAT LIVER S-9, PHENOBARBITAL AND BETA-NAPHTHOFLAVONE, Method: PREINCUBATION) “inactive; negative”; (Test System: AMES SALMONELLA TYPHIMURIUM, Strain/Indicator: TA102, Metabolic Activation: NONE, Method: PREINCUBATION) “inactive; negative”; (Test System: AMES SALMONELLA TYPHIMURIUM, Strain/Indicator: TA102, Metabolic Activation: RAT LIVER S-9, PHENOBARBITAL AND BETA-NAPHTHOFLAVONE, Method: PREINCUBATION) “inactive; negative”. Moreover, the mutagenic call was “inactive; negative” (Test System: AMES SALMONELLA TYPHIMURIUM, Strain/Indicator: TA104, Metabolic Activation: NONE, Method: PREINCUBATION); “inactive; negative” (Test System: AMES SALMONELLA TYPHIMURIUM, Strain/Indicator: TA104, Metabolic Activation: RAT LIVER S-9, PHENOBARBITAL AND BETA-NAPHTHOFLAVONE, Method: PREINCUBATION); “inactive; negative” under setting [3]; “inactive; negative” (Test System: AMES SALMONELLA TYPHIMURIUM, Strain/Indicator: TA1535, Metabolic Activation: RAT LIVER S-9, PHENOBARBITAL AND BETA-NAPHTHOFLAVONE, Method: PREINCUBATION); “inactive; negative” (Test System: AMES SALMONELLA TYPHIMURIUM, Strain/Indicator: TA1537, Metabolic Activation: NONE, Method: PREINCUBATION); “inactive; negative” (Test System: AMES SALMONELLA TYPHIMURIUM, Strain/Indicator: TA1537, Metabolic Activation: RAT LIVER S-9, PHENOBARBITAL AND BETA-NAPHTHOFLAVONE, Method: PREINCUBATION). Also, the mutagenic call (Test System: E.COLI, Strain/Indicator: WP2UVRA/PKM101, Metabolic Activation: NONE, Method: PREINCUBATION) is “inactive; negative”; the mutagenic call (Test System: E.COLI, Strain/Indicator: WP2UVRA/PKM101, Metabolic Activation: RAT LIVER S-9, PHENOBARBITAL AND BETA-NAPHTHOFLAVONE, Method: PREINCUBATION) was “inactive; negative”; the mutagenic call (Test System: E.COLI, Strain/Indicator: WP2UVRA, Metabolic Activation: NONE, Method: PREINCUBATION) was “inactive; negative”; the mutagenic call (Test System: E.COLI, Strain/Indicator: WP2UVRA, Metabolic Activation: RAT LIVER S-9, PHENOBARBITAL AND BETA-NAPHTHOFLAVONE, Method: PREINCUBATION) is “inactive; negative”.

For `C[C@H](CCC(=O)O)[C@H]1CC[C@H]2[C@@H]3CC[C@@H]4C[C@@H](O)CC[C@]4(C)[C@H]3CC(=O)[C@]12C`, the mutagenic call by setting is: (Test System: AMES SALMONELLA TYPHIMURIUM, Strain/Indicator: TA98, Metabolic Activation: NONE, Method: FLUCTUATION TEST) “inactive; negative”; under setting [1], “inactive; negative”; (Test System: AMES SALMONELLA TYPHIMURIUM, Strain/Indicator: TA98, Metabolic Activation: RAT, LIVER, S-9, PCB, Method: PREINCUBATION) “inactive; negative”; (Test System: AMES SALMONELLA TYPHIMURIUM, Strain/Indicator: TA100, Metabolic Activation: NONE, Method: FLUCTUATION TEST) “inactive; negative”.

These data come from PubChem BioAssay AID1259407 (Chemical Carcinogenesis Research Information System (CCRIS), 2018).
